According to US11439696B2, “Modulation of proprotein convertase subtilisin/kexin 9 expression (PCSK9) with HSP 27 and/or HSP25” (PEMI31 Therapeutics Inc., priority 2015, dated 2022):
Where “and” joins values, the source holds several entries; their conditions need not be identical. Equal entries are not always repeated.

Key:
LDL-Receptor (LDL-R) = experiment: LDL-Receptor fluorescent immunolabelling of HepG2 (liver) cells; assay type: cell-based; details: HepG2, 17β-estradiol 100 nM or rHSP27 100 μg overnight (16 hours) (FIG. 17)
Method: HepG2 cells (10^5 cells) were seeded in SPL Coverglass sterile dish 35×10 mm (Bio Lab) for 2 days. Cells were then treated with 17β-estradiol (100 nM) or rHSP27 (100 μg) overnight (16 hours). After washing, cells were fixed in 4% paraformaldehyde, permeabilized in 0.5% (v/v) Triton x-100 for 10 minutes, washed, blocked in 10% horse serum (1 hour), washed, then incubated in primary antibody rabbit monoclonal to LDL-R (Ab52818; ABCAM; 1:100) 4° C. overnight. After washing, cells were incubated in secondary antibody fluorescein goat Anti-Rabbit IgG antibody (FI-1000; Vector Laboratories; 1:100) for 30 min at room temperature, then mounted with mounting medium with DAPI (VectaShield Antifade Mounting Medium with DAPI; Vector Labs H-1200) for at least 24 hour in the dark before visualization. Various controls were used, and included: (i) absence of the Triton treatement, and (ii) omitting the primary or secondary antibodies used for immunolabelling. Immunofluorescence 10^5 cells were seeded ina SPL coverglass sterile dish 35×10 mm (Bio Lab) for 2 days. The cells were then treated with 17 β-estradiol (100 nM) or rHSP27 (100 μg) overnight (16 hours). […] Mounted with mounting medium with DAPI (VectaShield Antifade Mounting Medium with DAPI; Vector Labs H-1200) for at least 24 hour in the dark before visualization with fluorescence microscopy.

PCSK9 [1] = experiment: Western blot (relative densitometry) of PCSK9 expression in HepG2 (liver) cells; assay type: cell-based; details: HepG2 (liver) cells treated for 1 h (FIG. 15)
Method: (§1) HepG2 cells (0.5×10^6 cells/60 mm well) were incubated on H-Glucose DMEM medium containing 10% FBS and 1×penicillin/streptomycin in the presence or absence of rHsp27 (200 μg) for specified time periods at 37° C. At the end of incubation period, the medium was removed and centrifuged at 4,000 rpm for 10 min at 4° C. to remove a small amount of residual cells and debris. The supernatant fraction was stored at 4° C. until analyzed.
(§2) Meanwhile, cells were washed three times with cold PBS, scraped off the dishes (after the addition of 1 ml lysis buffer (20 mM Tris-HCl; pH 8.0; 150 mM NaCl; 0.1 mM PMSF), and sonicated; whole cell lysates were then stored at −20° C. until use.
(§3) Total cell or tissue lysates were prepared in lysis buffer (20 mM Tris-Hcl pH8.0, 150 mM NaCl, 0.1% SDS, 0.1 mM PMSF). Lysates were cleared by centrifugation at 4° C., 12,000 rpm for 10 min, and protein concentrations were determined using the Bradford protein assay with BSA as the standard. […]
HepG2 cells in the 6-well plates were washed twice with phosphate-buffered saline and lifted by pipette with 1 ml PBS. […] The membrane fraction was re-suspended in PBS by sonication and the protein concentration was determined by Bradford reagent (Sigma). […] Signals on the membrane were visualized by chemi-luminescence of HRP substrate.

LDL-Receptor = experiment: Western blot (relative densitometry) of LDL-Receptor expression in HepG2 (liver) cells; assay type: cell-based; details: HepG2 (liver) cells treated for 6 h (FIG. 16)
Method: as §1, §2, §3

PCSK9 [2] = experiment: PCSK9 secretion from HepG2 (liver) cells with increasing doses of Atorvastatin; assay type: cell-based; details: HepG2, increasing doses of AV (FIG. 12)
Method: […] At the end of incubation period, the medium was removed and centrifuged at 4,000 rpm for 10 min at 4° C. to remove a small amount of residual cells and debris. The supernatant fraction was stored at 4° C. until analyzed.
Total cell or tissue lysates were prepared in lysis buffer (20 mM Tris-Hcl pH8.0, 150 mM NaCl, 0.1% SDS, 0.1 mM PMSF). Lysates were cleared by centrifugation at 4° C., 12,000 rpm for 10 min, and protein concentrations were determined using the Bradford protein assay with BSA as the standard. Samples (30 μl culture medium, 50 μg for cell and 25 μg for liver) were separated by SDS-PAGE under reducing conditions, transferred to IMMOBILON® PVDF (IMMOBILON is a registered trademark of Millipore Corp.) using IBLOT® Dry Blotting System (Life Technologies; IBLOT is a registered trademark of Invitrogen Corp., Carlsbad, Calif., USA) and subsequently membranes were immunoblotted with the following antibodies: LDL-R (Santa Cruz, 1:1000) and PCSK9 (Santa Cruz, 1:1000); β-Actin (Santa Cruz, 1:1000) was used as the loading control. Appropriate secondary HRP-conjugated antibodies were used prior to visualization by enhanced chemiluminescence (ECL, Life technologies).

PCSK9 mRNA = PCSK9 mRNA expression in HepG2 (liver) cells by quantitative RT-PCR; assay type: cell-based; details: HepG2 (FIG. 14)
[3] = Stability of HSP27 in human serum at −20° C. (MRM-MS); assay type: physicochemical; details: two representative human sera, 3 weeks storage at −20° C. (FIG. 7E)
Method: The assay was fully validated according to the U.S. Food and Drug Administration (FDA) Bioanalytical method validation guideline (www.fda.dov/downloads/Drugs/GuidanceComplianceRegulatoryInformation/Guidances/UCM070107). Nine calibration standards of trypsin-digested recombinant HSP27 were prepared by serial dilution in concentrations of 1000; 500; 250; 125; 62.5; 31.25; 15.625; 7.8 and 0 ng/ml. The limit of detection (LOD) was calculated as the smallest detectable peak above baseline noise (signal-to-noise ratio>3:1). Calculating target peptide: AQUA peptide ratios of the peak area for each concentration level. Standard curves were constructed by linear regression analysis by excel. The same samples were analyzed 7 times and the repeatability was compared. Extraction efficiency and recovery were performed by comparing concentrations between samples without and with standard rHSP27. Matrix effect was assessed using double dilution test for the linearity when serum samples were 1, 2, 4 and 8 times diluted. Parallelism test was also applied to estimate matrix effect. Stability of HSP27 in human serum was estimated for 21 days at −20° C.

C[C@]12CC[C@@H]3c4ccc(O)cc4CC[C@H]3[C@@H]1CC[C@@H]2O [17 β-estradiol]
LDL-R signal (LDL-Receptor (LDL-R)): increased | reduction in PCSK9 expression (PCSK9 [1]): 28% | increase in LDL-Receptor expression (LDL-Receptor): 116%

CC(C)c1c(C(=O)Nc2ccccc2)c(-c2ccccc2)c(-c2ccc(F)cc2)n1CC[C@@H](O)C[C@@H](O)CC(=O)O [AV, Atorvastatin]
secretion of PCSK9 (PCSK9 [2]): dose-dependent secretion | PCSK9 expression (mRNA) on treatment with AV (PCSK9 mRNA): increase

endogenous HSP27: endogenous heat shock protein 27 in human serum samples, measured by MRM-MS
endogenous HSP27 remaining after storage [3]: 111+6 % of fresh sera and 87+5 % of fresh sera
